Reference: ChEMBL document CHEMBL4393738, “Design of hybrid molecules as antimycobacterial compounds: Synthesis of isoniazid-naphthoquinone derivatives and their activity against susceptible and resistant strains of Mycobacterium tuberculosis” (Bioorg Med Chem, 2019)
≈ marks a conversion by molar mass, not a printed value.

How the values were obtained:
Assay type in all cases: functional
[1] = tested on: Mycobacterium tuberculosis; assay: Antimycobacterial activity against isoniazid resistant Mycobacterium tuberculosis ATCC 35822 after 7 days by resazurin microtiter assay; conditions: ATCC 35822, 168 h
[2] = tested on: Mycobacterium tuberculosis; assay: Antimycobacterial activity against isoniazid resistant Mycobacterium tuberculosis measured after 7 days by resazurin microtiter assay; conditions: 168 h
[3] = tested on: Mycobacterium tuberculosis; assay: Antimycobacterial activity against isoniazid resistant Mycobacterium tuberculosis H37Rv ATCC 27294 measured after 7 days by resazurin microtiter assay; conditions: H37Rv ATCC 27294, 168 h

SMILES	MIC [1]	MIC [2]	MIC [3]
CC1CC2=C(O1)c1ccccc1/C(=N/NC(=O)c1ccncc1)C2=O (stereo not drawn)	12.5 µg/mL (≈ 37.5 µM)	25 µg/mL (≈ 75 µM)	12.5 µg/mL (≈ 37.5 µM)
CC1(C)OC2=C(C(=O)/C(=N\NC(=O)c3ccncc3)c3ccccc32)[C@H](n2cc(-c3ccccc3)nn2)[C@H]1Br	200 µg/mL (≈ 343 µM)	> 200 µg/mL	200 µg/mL (≈ 343 µM)
CC1(C)OC2=C(CC1Br)C(=O)C(=O)c1ccccc12 (stereo not drawn)	6.25 µg/mL (≈ 19.5 µM)	3.12 µg/mL (≈ 9.71 µM)	6.25 µg/mL (≈ 19.5 µM)
CC1(C)OC2=C(C(=O)/C(=N\NC(=O)c3ccncc3)c3ccccc32)C1O (stereo not drawn)	200 µg/mL (≈ 550 µM)	100 µg/mL (≈ 275 µM)	6.25 µg/mL (≈ 17.2 µM)
CC1(C)OC2=C(CC1I)C(=O)C(=O)c1ccccc12 (stereo not drawn)	3.12 µg/mL (≈ 8.47 µM)	6.25 µg/mL (≈ 17 µM)	3.12 µg/mL (≈ 8.47 µM)
CC1(C)CCC2=C(O1)C(=O)c1ccccc1C2=O [ALPHA-LAPACHONE]	–	–	103 µg/mL (≈ 426 µM)
NNC(=O)c1ccncc1 [ISONIAZID]	2 µg/mL (≈ 14.6 µM)	0.25 µg/mL (≈ 1.82 µM)	0.03 µg/mL (≈ 0.219 µM)
CC1(C)CCC2=C(O1)c1ccccc1/C(=N/NC(=O)c1ccncc1)C2=O	50 µg/mL (≈ 138 µM)	6.25 µg/mL (≈ 17.3 µM)	0.78 µg/mL (≈ 2.16 µM)
CC1(C)OC2=C(C(=O)C(=O)c3ccccc32)[C@H](n2cc(-c3ccccc3)nn2)[C@H]1Br (racemic)	6.25 µg/mL (≈ 13.5 µM)	12.5 µg/mL (≈ 26.9 µM)	1.56 µg/mL (≈ 3.36 µM)
CC1(C)OC2=C(CC1Br)C(=O)/C(=N\NC(=O)c1ccncc1)c1ccccc12 (stereo not drawn)	12.5 µg/mL (≈ 28.4 µM)	12.5 µg/mL (≈ 28.4 µM)	12.5 µg/mL (≈ 28.4 µM)
CC1(C)OC2=C(C(=O)C(=O)c3ccccc32)C1O (stereo not drawn)	25 µg/mL (≈ 102 µM)	25 µg/mL (≈ 102 µM)	12.5 µg/mL (≈ 51.2 µM)
CC1(C)OC2=C(C(=O)/C(=N\NC(=O)c3ccncc3)c3ccccc32)C1Nc1ccccc1 (stereo not drawn)	100 µg/mL (≈ 228 µM)	25 µg/mL (≈ 57 µM)	25 µg/mL (≈ 57 µM)
CC1(C)CCC2=C(O1)c1ccccc1C(=O)C2=O [LAPACHONE]	3.12 µg/mL (≈ 12.9 µM)	6.25 µg/mL (≈ 25.8 µM)	1.56 to 6.25 µg/mL (≈ 6.44 to 25.8 µM)
CC1(C)CC2=C(O1)/C(=N\NC(=O)c1ccncc1)c1ccccc1C2=O	100 µg/mL (≈ 288 µM)	200 µg/mL (≈ 576 µM)	25 µg/mL (≈ 72 µM)
CC1(C)OC2=C(C(=O)C(=O)c3ccccc32)C1n1cc(-c2ccccc2)nn1 (stereo not drawn)	25 µg/mL (≈ 67.3 µM)	25 µg/mL (≈ 67.3 µM)	6.25 µg/mL (≈ 16.8 µM)
O=C1C(=O)c2ccccc2C2=C1CC(Cn1cc(-c3ccccc3)nn1)O2 (stereo not drawn)	25 µg/mL (≈ 70 µM)	25 µg/mL (≈ 70 µM)	12.5 µg/mL (≈ 35 µM)
CC1(C)OC2=C(CC1I)C(=O)/C(=N\NC(=O)c1ccncc1)c1ccccc12 (stereo not drawn)	100 µg/mL (≈ 205 µM)	100 µg/mL (≈ 205 µM)	100 µg/mL (≈ 205 µM)
CC1(C)OC2=C(C(=O)C(=O)c3ccccc32)C1Nc1ccccc1 (stereo not drawn)	3.12 µg/mL (≈ 9.77 µM)	6.25 µg/mL (≈ 19.6 µM)	3.12 µg/mL (≈ 9.77 µM)
CO[C@H]1/C=C/O[C@@]2(C)Oc3c(C)c(O)c4c(O)c(c(/C=N/N5CCN(C)CC5)c(O)c4c3C2=O)NC(=O)/C(C)=C\C=C\[C@H](C)[C@H](O)[C@@H](C)[C@@H](O)[C@@H](C)[C@H](OC(C)=O)[C@@H]1C [RIFAMPIN]	≤ 0.03 µg/mL	> 8 µg/mL	≤ 0.03 µg/mL
CC1(C)CC2=C(O1)c1ccccc1/C(=N/NC(=O)c1ccncc1)C2=O	50 µg/mL (≈ 144 µM)	6.25 µg/mL (≈ 18 µM)	0.78 µg/mL (≈ 2.25 µM)
CC1(C)CC2=C(O1)C(=O)c1ccccc1C2=O	25 µg/mL (≈ 110 µM)	25 µg/mL (≈ 110 µM)	12.5 µg/mL (≈ 54.8 µM)
O=C1C2=C(OC(Cn3cc(-c4ccccc4)nn3)C2)c2ccccc2/C1=N/NC(=O)c1ccncc1 (stereo not drawn)	50 µg/mL (≈ 105 µM)	50 µg/mL (≈ 105 µM)	12.5 µg/mL (≈ 26.2 µM)
CC1(C)CCC2=C(O1)/C(=N\NC(=O)c1ccncc1)c1ccccc1C2=O	> 200 µg/mL	> 200 µg/mL	> 200 µg/mL
CC1(C)CC2=C(O1)c1ccccc1C(=O)C2=O [NOR-BETA-LAPACHONE]	12.5 µg/mL (≈ 54.8 µM)	6.25 µg/mL (≈ 27.4 µM)	3.12 µg/mL (≈ 13.7 µM)
CC1(C)OC2=C(C(=O)/C(=N\NC(=O)c3ccncc3)c3ccccc32)C1n1cc(-c2ccccc2)nn1 (stereo not drawn)	12.5 µg/mL (≈ 25.5 µM)	12.5 µg/mL (≈ 25.5 µM)	12.5 µg/mL (≈ 25.5 µM)
